According to ChEMBL document CHEMBL3639166, “Heteroaryloxyheterocyclyl compounds as PDE10 inhibitors” (2013):

Biological target: T1, cAMP and cAMP-inhibited cGMP 3',5'-cyclic phosphodiesterase 10A (Rattus norvegicus, UniProt Q9QYJ6)
T1 sequence (Q9QYJ6 whole entry): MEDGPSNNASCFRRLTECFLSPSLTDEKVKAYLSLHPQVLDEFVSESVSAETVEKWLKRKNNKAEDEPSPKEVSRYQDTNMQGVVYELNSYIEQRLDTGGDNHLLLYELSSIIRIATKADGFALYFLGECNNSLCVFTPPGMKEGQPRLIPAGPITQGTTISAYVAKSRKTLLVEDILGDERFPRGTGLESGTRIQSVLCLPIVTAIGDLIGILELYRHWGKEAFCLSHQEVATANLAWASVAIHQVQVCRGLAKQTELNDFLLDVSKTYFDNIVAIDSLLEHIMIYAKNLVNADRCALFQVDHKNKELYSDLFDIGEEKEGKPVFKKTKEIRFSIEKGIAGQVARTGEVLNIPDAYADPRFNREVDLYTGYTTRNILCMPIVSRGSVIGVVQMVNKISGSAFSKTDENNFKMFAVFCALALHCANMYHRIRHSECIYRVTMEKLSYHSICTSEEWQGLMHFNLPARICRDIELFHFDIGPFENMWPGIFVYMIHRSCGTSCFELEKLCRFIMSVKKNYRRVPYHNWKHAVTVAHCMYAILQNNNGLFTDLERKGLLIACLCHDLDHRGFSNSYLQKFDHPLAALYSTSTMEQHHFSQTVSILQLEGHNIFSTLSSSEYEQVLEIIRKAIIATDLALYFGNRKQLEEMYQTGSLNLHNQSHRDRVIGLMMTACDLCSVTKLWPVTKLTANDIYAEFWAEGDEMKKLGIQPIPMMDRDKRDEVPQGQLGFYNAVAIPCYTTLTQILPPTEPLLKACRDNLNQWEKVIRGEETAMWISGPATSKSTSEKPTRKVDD
Test: Enzyme Inhibition Assay: Enzyme activity: An IMAP TR-FRET assay was used to analyze the enzyme activity (Molecular Devices Corp., Sunnyvale, Calif).

SMILES	IC50 [nM]
OCC1CCN(c2cncc(OC3CN(c4ccc5ccccc5n4)C3)n2)CC1	0.639
OCC1CCN(c2nccnc2OC2CN(c3ccc4ccccc4n3)C2)CC1	2.3
OCC1CCN(c2nccnc2OC2CN(c3cnc4ccccc4n3)C2)CC1	37.8
OCC1CCN(c2nccnc2O[C@@H]2CCN(c3ccc4ccccc4n3)C2)CC1	167
OCC1CCN(c2nccnc2O[C@H]2CCN(c3ccc4ccccc4n3)C2)CC1	78
CC1CCN(c2nccnc2OC2CN(c3ccc4ccccc4n3)C2)CC1	124
N#Cc1ccc(-c2nccnc2OC2CN(c3ccc4ccccc4n3)C2)cc1	39.4
OC1CCN(c2nccnc2OC2CCN(c3ccc4ccccc4n3)CC2)CC1	198
O[C@@H]1CCN(c2nccnc2OC2CCN(c3ccc4ccccc4n3)CC2)C1	356
O[C@H]1CCN(c2nccnc2OC2CCN(c3ccc4ccccc4n3)CC2)C1	198
c1ccc2nc(N3CCC(Oc4nccnc4N4CCCCC4)CC3)ccc2c1	403
c1ccc2nc(N3CCC(Oc4nccnc4N4CCC4)CC3)ccc2c1	273
c1ccc2nc(N3CC(Oc4nccnc4N4CCCC4)C3)ccc2c1	10000
OC[C@H]1CCCN1c1nccnc1OC1CN(c2ccc3ccccc3n2)C1	150
c1ccc2nc(N3CC(Oc4nccnc4N4CCCOCC4)C3)ccc2c1	44.6
CN1CCCN(c2nccnc2OC2CN(c3ccc4ccccc4n3)C2)CC1	2990
OCC1CCN(c2ncc(Cl)c(OC3CN(c4ccc5ccccc5n4)C3)n2)CC1	10
OCC1CCN(c2ncc(Br)c(OC3CN(c4cnc5ccccc5n4)C3)n2)CC1	24.2
OC1CCN(c2ncc(Br)c(OC3CN(c4ccc5ccccc5n4)C3)n2)CC1	73.7
CN1CCN(c2nccnc2OC2CN(c3ccc4ccccc4n3)C2)CC1	683
CN1CCN(c2nccnc2OC2CN(c3ccc4ccccc4n3)C2)CC1=O	33.9

SMILES	IC50 [nM]
c1ccc2nc(N3CC(Oc4nccnc4N4CCC(N5CCCC5)CC4)C3)ccc2c1	571
OCC1CN(c2nccnc2OC2CN(c3ccc4ccccc4n3)C2)CCO1 (centres undefined)	88.6
O=C(c1nc2ccccc2[nH]1)N1CC(Oc2nccnc2N2CCOCC2)C1	377
O=C(c1nc2ccccc2[nH]1)N1CC(Oc2nccnc2N2CCC(O)CC2)C1	186
N#CC1CCN(c2cc(F)cnc2OC2CN(c3ccc4ccccc4n3)C2)CC1	15.1
Cc1cnc(OC2CN(c3ccc4ccccc4n3)C2)c(N2CCC(CO)CC2)c1	1.52
OCC1CCN(c2ncc(Br)c(OC3CN(c4ccc5ccccc5n4)C3)n2)CC1	7
OCC1CCCN(c2ncc(Br)c(OC3CN(c4ccc5ccccc5n4)C3)n2)C1 (centres undefined)	60
OCC1CCN(c2ncc(N3CCCCC3)c(OC3CN(c4ccc5ccccc5n4)C3)n2)CC1	18.4
CC(O)C1CCN(c2ncc(Br)c(OC3CN(c4ccc5ccccc5n4)C3)n2)CC1 (centres undefined)	242
CC(=O)N1CCN(c2nccnc2OC2CN(c3ccc4ccccc4n3)C2)CC1	77.5
COC1CCN(c2nccnc2OC2CCN(c3ccc4ccccc4n3)CC2)CC1	59.6
COCC1CCN(c2nccnc2OC2CCN(c3ccc4ccccc4n3)CC2)CC1	1120
Cc1cnccc1-c1nccnc1OC1CCN(c2ccc3ccccc3n2)CC1	34.7
c1ccc2nc(N3CCC(Oc4nccnc4-c4ccncc4)CC3)ccc2c1	35.7
COc1ncccc1-c1nccnc1OC1CCN(c2ccc3ccccc3n2)CC1	118
Cc1cnccc1-c1nccnc1OC1CN(c2ccc3ccccc3n2)C1	298
COc1ccccc1-c1nccnc1OC1CN(c2ccc3ccccc3n2)C1	150
Fc1cc(-c2nccnc2OC2CN(c3ccc4ccccc4n3)C2)ccn1	39.5
N#Cc1ccccc1-c1nccnc1OC1CN(c2ccc3ccccc3n2)C1	377

Continued by falling IC50, values first:

IC50 [nM]	SMILES
1340	COC(=O)C1CCN(c2ncc(Br)c(OC3CN(c4ccc5ccccc5n4)C3)n2)CC1
1270	CC(=O)N1CC2(C1)CN(c1nccnc1OC1CCN(c3ccc4ccccc4n3)CC1)C2
1220	c1ccc(-c2nccnc2OC2CN(c3ccc4ccccc4n3)C2)nc1
1220	OC1CN(c2nccnc2OC2CCN(c3ccc4ccccc4n3)CC2)C1
637	CC(=O)N1CCN(c2nccnc2OC2CN(C(=O)c3nc4ccccc4[nH]3)C2)CC1
520	CN(C)C1CCN(c2nccnc2OC2CN(c3ccc4ccccc4n3)C2)CC1
358	CC1CCN(c2ncc(Br)c(OC3CN(c4ccc5ccccc5n4)C3)n2)CC1
345	c1ccc2nc(N3CCC(Oc4nccnc4N4CC5(COC5)C4)CC3)ccc2c1
334	c1ccc2nc(N3CC(Oc4nccnc4N4CCCCCC4)C3)ccc2c1
314	C1=CCN(c2nccnc2OC2CN(c3ccc4ccccc4n3)C2)CC1
286	c1ccc2nc(N3CCC(Oc4nccnc4N4CCCC4)CC3)ccc2c1
260	OCC1CCCCN1c1ncc(Br)c(OC2CN(c3ccc4ccccc4n3)C2)n1 (centres undefined)
254	c1ccc2nc(N3CCC(Oc4nccnc4N4CCOCC4)CC3)ccc2c1
195	O=C1CCN(c2nccnc2OC2CCN(c3ccc4ccccc4n3)CC2)CC1
155	Clc1cnccc1-c1nccnc1OC1CN(c2ccc3ccccc3n2)C1
128	Cc1ccccc1-c1nccnc1OC1CN(c2ccc3ccccc3n2)C1
110	O=C1CCN(c2nccnc2OC2CN(c3ccc4ccccc4n3)C2)CC1
98.7	Cc1ccc(-c2nccnc2OC2CN(c3ccc4ccccc4n3)C2)cc1
86.1	c1ccc2nc(N3CC(Oc4nccnc4N4CCC4)C3)ccc2c1

IC50 [nM]	SMILES
85.8	CC(C)(O)C1CCN(c2nccnc2OC2CCN(c3ccc4ccccc4n3)CC2)CC1
83.9	Clc1cnccc1-c1nccnc1OC1CCN(c2ccc3ccccc3n2)CC1
83.6	CC(C)(O)C1CCN(c2nccnc2OC2CN(c3ccc4ccccc4n3)C2)CC1
68.9	N#CC1CCN(c2cccnc2OC2CN(c3ccc4ccccc4n3)C2)CC1
67	OC1CCN(c2nccnc2OC2CN(c3ccc4ccccc4n3)C2)C1 (centres undefined)
62.8	CC1CN(c2nccnc2OC2CN(c3ccc4ccccc4n3)C2)CCO1 (centres undefined)
46.9	CC(O)C1CCN(c2nccnc2OC2CN(c3ccc4ccccc4n3)C2)CC1 (centres undefined)
43.6	c1ccc2nc(N3CC(Oc4nccnc4N4CCC5(CC4)COC5)C3)ccc2c1
40.6	OCC1CCCN(c2nccnc2OC2CN(c3ccc4ccccc4n3)C2)C1 (centres undefined)
29.5	OC1CCCN(c2nccnc2OC2CN(c3ccc4ccccc4n3)C2)CC1 (centres undefined)
26.1	OC1CCN(c2nccnc2OC2CN(c3ccc4ccccc4n3)C2)CC1
24.5	c1ccc2nc(N3CC(Oc4nccnc4-c4ccncc4)C3)ccc2c1
20.6	OCC1CCN(c2ncc(Br)c(OC3CN(c4ccc5ccccc5n4)C3)n2)C1 (centres undefined)
20	OCC1CCN(c2nccnc2NC2CN(c3ccc4ccccc4n3)C2)CC1
20	OCC1CCN(c2ncc(F)c(OC3CN(c4ccc5ccccc5n4)C3)n2)CC1
19.2	N#CC1CCN(c2nc3ccccc3nc2OC2CN(c3ccc4ccccc4n3)C2)CC1
14.6	OCC1CCN(c2ncc(Br)c(OC3CN(c4ncc5ccccc5n4)C3)n2)CC1
9.75	OCC1CCN(c2nc3ccccc3nc2OC2CN(c3ccc4ccccc4n3)C2)CC1
0.229	OCC1CCN(c2ccc(Br)c(OC3CN(c4ccc5ccccc5n4)C3)n2)CC1
